Where a name gives a salt, the structure may show the parent alone. Read-outs that look alike come from different tables or passages of the source.

One data set is described as follows: in vitro. The note with it: for cytotoxicity at 41 h, 10 µM: human.
For another data set, the system named is Cryptosporidium parvum. Briefly: qRT-PCR assay of the growth of C. parvum in vitro in HCT-8 host cells (primary and secondary screening, EC50). In kind it is cell-based. The note with it: Cryptosporidium parvum, HCT-8; for inhibition at 10 µM: primary screening at 10 uM, read-out: Inhibition (%).
Setting [1] is: primary screening at 10 uM, treated vs control.

For the molecule `COc1ccc(-c2coc3cc(O)ccc3c2=O)c(O)c1O` [KOPARIN], the cytotoxicity at 41 h, 10 µM in the data set “in vitro” is -1.6%. The inhibition at 10 µM with Cryptosporidium parvum stood at 6.05%. Also, the “Hs18S ΔCT” value in the data set on HCT-8 host cells (Hs18S) (human, 41 h, 10 μM) is given as -0.02.

As to `Nc1ccccc1C(=O)CC(N)C(=O)O` (stereo not shown) [KYNURENINE], the cytotoxicity at 10 µM in the data set “in vitro” was determined as 28.1%. Moreover, the inhibition at 10 µM in the data set on Cryptosporidium parvum was -14.4%. Further, the “Hs18S ΔCT” value in the data set with HCT-8 host cells (Hs18S) (setting [1]) is 0.48.

Take `CC(C)=CCC[C@@H](C)[C@H]1CC[C@@]2(C)C3=C(CC[C@]12C)[C@@]1(C)CC[C@H](O)C(C)(C)[C@@H]1CC3` [LANOSTEROL]: in the data set “in vitro”, the cytotoxicity at 41 h, 10 µM was -18.1%. The inhibition at 10 µM in the data set on Cryptosporidium parvum is -22.5%. Moreover, in the data set on HCT-8 host cells (Hs18S) (human, 41 h, 10 μM), the “Hs18S ΔCT” value is -0.24.

For `CC(C)=CCC1=C(O)C(=O)c2ccccc2C1=O` [LAPACHOL], the cytotoxicity at 41 h, 10 µM in “in vitro” was -52%. Also, the inhibition at 10 µM in the data set on Cryptosporidium parvum turned out to be 91.3%. For the same molecule, in the data set with Cryptosporidium parvum (secondary screening at 3.3 uM, read-out: % Inhibition (3.3 uM)), the inhibition at 3.3 µM was -98%. The “Hs18S ΔCT” value in the data set with HCT-8 host cells (Hs18S) (human, 41 h, 10 μM) is on record as -0.60.

With `O=C1C=C(O)C(=O)c2ccccc21` [LAWSONE], in “in vitro”, the cytotoxicity at 41 h, 10 µM is -12%. Besides, the inhibition at 10 µM with Cryptosporidium parvum was -46.1%. Further, the “Hs18S ΔCT” value in the data set on HCT-8 host cells (Hs18S) (human, 41 h, 10 μM) is listed as -0.16.

Take `Cc1cc(OC(=O)c2c(C)cc(O)cc2O)cc(O)c1C(=O)O` [LECANORIC ACID]: the cytotoxicity at 41 h, 10 µM in “in vitro” was -1.2%. In the data set on Cryptosporidium parvum, the inhibition at 10 µM is -20%. Moreover, in the data set with HCT-8 host cells (Hs18S) (human, 41 h, 10 μM), the “Hs18S ΔCT” value is reported as -0.02.

Take `COC(=O)c1c(C)c2c(c(C)c1O)OC(=O)c1c(C)c(Cl)c(O)c(Cl)c1O2` [LEOIDIN]: the cytotoxicity at 41 h, 10 µM in “in vitro” amounted to 24.9%. For the same molecule, the inhibition at 10 µM with Cryptosporidium parvum turned out to be 16.7%. For the same molecule, in the data set with HCT-8 host cells (Hs18S) (human, 41 h, 10 μM), the “Hs18S ΔCT” value was 0.41.

Regarding `N[C@@H](Cc1ccc(O)c(O)c1)C(=O)O` [LEVODOPA], in “in vitro”, the cytotoxicity at 41 h, 10 µM was -15.4%. Also, the inhibition at 10 µM in the data set with Cryptosporidium parvum is -9.67%. In addition, the “Hs18S ΔCT” value in the data set with HCT-8 host cells (Hs18S) (human, 41 h, 10 μM) was -0.21.

Turning to `N[C@@H](Cc1cc(I)c(Oc2cc(I)c(O)c(I)c2)c(I)c1)C(=O)O` [LEVOTHYROXINE], in “in vitro”, the cytotoxicity at 41 h, 10 µM is -2.2%. Moreover, in the data set on Cryptosporidium parvum, the inhibition at 10 µM was -12.4%. Also, in the data set on HCT-8 host cells (Hs18S) (human, 41 h, 10 μM), the “Hs18S ΔCT” value is recorded as -0.03.

Regarding `CC1(C)O[C@H]2CC(=O)OC[C@]23[C@H]2CC[C@@]4(C)[C@H](c5ccoc5)OC(=O)[C@H]5O[C@]54[C@]2(C)C(=O)C[C@@H]13` [LIMONIN], the cytotoxicity at 41 h, 10 µM in “in vitro” is -8.4%. Besides, in the data set with Cryptosporidium parvum, the inhibition at 10 µM stood at 26.2%. Further, the “Hs18S ΔCT” value in the data set with HCT-8 host cells (Hs18S) (human, 41 h, 10 μM) was -0.12.

`C=C[C@@](C)(O)CCC=C(C)C` [LINALOOL (+)]: the cytotoxicity at 10 µM in the data set “in vitro” was found to be 6.1%. Moreover, the inhibition at 10 µM in the data set on Cryptosporidium parvum is -23.3%. Besides, in the data set on HCT-8 host cells (Hs18S) (setting [1]), the “Hs18S ΔCT” value worked out at 0.09.

As to `CC(C)(C#N)O[C@@H]1O[C@H](CO)[C@@H](O)[C@H](O)[C@H]1O` [LINAMARIN], the cytotoxicity at 41 h, 10 µM in the data set “in vitro” came out at 33.5%. For the same molecule, in the data set with Cryptosporidium parvum, the inhibition at 10 µM was 6.23%. Also, the “Hs18S ΔCT” value in the data set on HCT-8 host cells (Hs18S) (setting [1]) turned out to be 0.59.

Regarding `C[C@H](CCC(=O)O)[C@H]1CC[C@H]2[C@@H]3CC[C@@H]4C[C@H](O)CC[C@]4(C)[C@H]3CC[C@]12C` [LITHOCHOLIC ACID], the cytotoxicity at 41 h, 10 µM in “in vitro” stood at 36.1%. Further, the inhibition at 10 µM in the data set on Cryptosporidium parvum is -55.8%. The “Hs18S ΔCT” value in the data set on HCT-8 host cells (Hs18S) (human, 41 h, 10 μM) stood at 0.65.

Consider `CCCCCc1c2c(cc(O)c1C(=O)O)OC(=O)c1c(cc(OC)cc1C(=O)CCCC)O2` [LOBARIC ACID], for which, in the data set “in vitro”, the cytotoxicity at 41 h, 10 µM turned out to be 13.1%. The inhibition at 10 µM in the data set on Cryptosporidium parvum is 18.2%. In addition, the “Hs18S ΔCT” value in the data set on HCT-8 host cells (Hs18S) (human, 41 h, 10 μM) amounted to 0.20.

Regarding `O=C(O)CCC1NCC2CC1CN1CCCCC21` (stereo not shown) [LUPANYL ACID HYDROCHLORIDE], in the data set “in vitro”, the cytotoxicity at 41 h, 10 µM is 6%. Further, the inhibition at 10 µM in the data set with Cryptosporidium parvum stood at 5.4%. Moreover, the “Hs18S ΔCT” value with HCT-8 host cells (Hs18S) (human, 41 h, 10 μM) was 0.09.

For `C=C(C)[C@@H]1CC[C@]2(C)CC[C@]3(C)[C@H](CC[C@@H]4[C@@]5(C)CC[C@H](O)C(C)(C)[C@@H]5CC[C@]43C)[C@@H]12` [LUPEOL], the cytotoxicity at 41 h, 10 µM in “in vitro” turned out to be 3.4%. Further, the inhibition at 10 µM in the data set on Cryptosporidium parvum worked out at 41.8%. Besides, the “Hs18S ΔCT” value in the data set with HCT-8 host cells (Hs18S) (setting [1]) is 0.05.

Regarding `OC[C@@H]1CCCN2CCCC[C@H]12` [LUPININE], in the data set “in vitro”, the cytotoxicity at 41 h, 10 µM was determined as 11.8%. Besides, in the data set on Cryptosporidium parvum, the inhibition at 10 µM amounted to 26.1%. In the data set on HCT-8 host cells (Hs18S) (human, 41 h, 10 μM), the “Hs18S ΔCT” value is listed as 0.18.

Turning to `C[C@H]1[C@H](C)CC[C@]2(C(=O)O)CC[C@]3(C)C(=CC[C@@H]4[C@@]5(C)C[C@@H](O)[C@H](O)[C@@](C)(CO)[C@@H]5[C@H](O)C[C@]43C)[C@H]12` [MADECASSIC ACID], the cytotoxicity at 10 µM in the data set “in vitro” was -11.7%. Besides, the inhibition at 10 µM in the data set on Cryptosporidium parvum was -20.3%. Further, the “Hs18S ΔCT” value with HCT-8 host cells (Hs18S) (setting [1]) is reported as -0.16.

`COC(=O)C(O)c1ccccc1` (stereo not shown) [MANDELIC ACID, METHYL ESTER]: in the data set “in vitro”, the cytotoxicity at 41 h, 10 µM turned out to be 19.1%. Moreover, the inhibition at 10 µM in the data set with Cryptosporidium parvum was -2.26%. The “Hs18S ΔCT” value in the data set with HCT-8 host cells (Hs18S) (human, 41 h, 10 μM) was 0.31.

With `O=c1c2cc(O)c(O)cc2oc2cc(O)c([C@@H]3O[C@H](CO)[C@@H](O)[C@H](O)[C@H]3O)c(O)c12` [MANGIFERIN], the cytotoxicity at 41 h, 10 µM in the data set “in vitro” amounted to 11.5%. The inhibition at 10 µM in the data set on Cryptosporidium parvum was -3.49%. Besides, the “Hs18S ΔCT” value with HCT-8 host cells (Hs18S) (human, 41 h, 10 μM) was determined as 0.18.

Turning to `COc1ccc2[nH]cc(CCNC(C)=O)c2c1` [MELATONIN], the cytotoxicity at 41 h, 10 µM in the data set “in vitro” was -196%. Moreover, the inhibition at 10 µM with Cryptosporidium parvum was -62.2%. Also, in the data set on HCT-8 host cells (Hs18S) (human, 41 h, 10 μM), the “Hs18S ΔCT” value is -1.56.

On to `OC[C@H]1O[C@@](CO)(O[C@H]2O[C@H](CO)[C@@H](O)[C@H](O)[C@H]2O)[C@@H](O[C@H]2O[C@H](CO)[C@@H](O)[C@H](O)[C@H]2O)[C@@H]1O` [MELEZITOSE], for which the cytotoxicity at 41 h, 10 µM in “in vitro” was -13%. Also, the inhibition at 10 µM in the data set on Cryptosporidium parvum is -16.8%. Moreover, the “Hs18S ΔCT” value with HCT-8 host cells (Hs18S) (human, 41 h, 10 μM) is listed as -0.18.

Regarding `CC1=CC(=O)c2ccccc2C1=O` [MENADIONE], the cytotoxicity at 41 h, 10 µM in the data set “in vitro” worked out at 29%. In addition, in the data set on Cryptosporidium parvum, the inhibition at 10 µM was -2.86%. For the same molecule, the “Hs18S ΔCT” value in the data set on HCT-8 host cells (Hs18S) (human, 41 h, 10 μM) turned out to be 0.49.

With `CC(C)=CCC/C(C)=C/CC/C(C)=C/CC/C(C)=C/CC1=C(C)C(=O)c2ccccc2C1=O` [MENAQUINONE-4], in “in vitro”, the cytotoxicity at 41 h, 10 µM was 4.1%. Besides, the inhibition at 10 µM in the data set on Cryptosporidium parvum is -13.8%. Besides, in the data set on HCT-8 host cells (Hs18S) (human, 41 h, 10 μM), the “Hs18S ΔCT” value was determined as 0.06.

For the molecule `CC(C)[C@@H]1CC[C@@H](C)CC1=O` [MENTHONE], the cytotoxicity at 41 h, 10 µM in “in vitro” is -14.5%. For the same molecule, in the data set with Cryptosporidium parvum, the inhibition at 10 µM came to 28.9%. Moreover, the “Hs18S ΔCT” value in the data set with HCT-8 host cells (Hs18S) (human, 41 h, 10 μM) is recorded as -0.20.

Consider `CC(C)[C@@H]1CC[C@@H](C)C[C@H]1OC(=O)c1ccccc1` [MENTHYL BENZOATE], for which the cytotoxicity at 41 h, 10 µM in “in vitro” was found to be 15.1%. Also, the inhibition at 10 µM in the data set on Cryptosporidium parvum was 1.74%. For the same molecule, in the data set on HCT-8 host cells (Hs18S) (human, 41 h, 10 μM), the “Hs18S ΔCT” value was found to be 0.24.

As to `CC1=C2C(O)C(=O)OC3CC4C(C)(C)C(=O)C=C[C@]4(C)C(CC1)[C@]23C` (stereo partly shown) [MEROGEDUNIN], the cytotoxicity at 41 h, 10 µM in the data set “in vitro” was -41.1%. Moreover, the inhibition at 10 µM in the data set with Cryptosporidium parvum was -12.3%. In addition, the “Hs18S ΔCT” value in the data set with HCT-8 host cells (Hs18S) (human, 41 h, 10 μM) was -0.50.

As to `COc1cc2c(cc1OC)C(=O)OC2` [METAMECONINE], the cytotoxicity at 41 h, 10 µM in “in vitro” is 20.2%. Besides, in the data set with Cryptosporidium parvum, the inhibition at 10 µM was found to be 24.5%. Further, the “Hs18S ΔCT” value in the data set with HCT-8 host cells (Hs18S) (human, 41 h, 10 μM) came to 0.33.

As to `COC(=O)c1cc(O)c(=O)c2c(O)c(O)ccc2c1` [METHYL 7-DESHYDROXYPYROGALLIN-4-CARBOXYLATE], in the data set “in vitro”, the cytotoxicity at 41 h, 10 µM is 10.5%. Further, the inhibition at 10 µM with Cryptosporidium parvum was -4.08%. Further, in the data set on HCT-8 host cells (Hs18S) (human, 41 h, 10 μM), the “Hs18S ΔCT” value stood at 0.16.

For the molecule `COC(=O)c1cc(OC)c(=O)c2c(OC)c(OC)ccc2c1` [METHYL 7-DESOXYPURPUROGALLIN-7-CARBOXYLATE TRIMETHYL ETHER], the cytotoxicity at 41 h, 10 µM in the data set “in vitro” was determined as 0.1%. In addition, the inhibition at 10 µM with Cryptosporidium parvum is -15.9%. Moreover, the “Hs18S ΔCT” value with HCT-8 host cells (Hs18S) (human, 41 h, 10 μM) amounted to 0.00.

These data come from article PMC6736568, “Discovery of Novel Anti-cryptosporidial Activities From Natural Products by in vitro High-Throughput Phenotypic Screening” (Frontiers in Microbiology, 2019).
